This passage reports IC50 results from ChEMBL document CHEMBL1151128, “Halleridone, a cytotoxic constituent from Cornus controversa” (J Nat Prod, 1988).

Each structure is given as a SMILES string. ≈ marks a conversion by molar mass, not a printed value.

The subject of one assay is P388. As to the kind of experiment: Cytotoxicity against mouse P388 cells. In kind it is functional, cell-based.
The nature of assay [1]: Cytotoxicity against human HeLaS3 cells. In kind it is functional, cell-based. The note with it: HeLa S3.

For orientation: IC50 means the concentration that gives 50% inhibition. Lower therefore signals greater potency in that assay. As for `O=C1CC[C@]2(O)CCO[C@@H]2C1`, the half-inhibitory concentration (IC50) with P388 is 43 µg/mL (≈ 275 µM); in assay [1], over 100 µg/mL.

For the compound `CCCCCCCC(=O)O[C@]12C=CC(O)C[C@H]1OCC2` (stereo not given in full), the results for the IC50 (in the assay with P388; in assay [1]) were 8.4 µg/mL (≈ 29.7 µM) and 3.5 µg/mL (≈ 12.4 µM), respectively.

On to `O=C1C=C[C@]2(OC(=O)c3ccccc3Cl)CCO[C@@H]2C1`, for which the results for the half-maximal inhibitory concentration (IC50) (in the assay on P388; in assay [1]) were 0.4 µg/mL (≈ 1.37 µM) and 1 µg/mL (≈ 3.42 µM), respectively.

For the compound `O=C1C=C[C@]2(O)CCO[C@@H]2C1` [HALLERIDONE], the IC50 came to 2.1 µg/mL (≈ 13.6 µM) in the assay with P388 and 2.8 µg/mL (≈ 18.2 µM) in assay [1].

On to `O=C1C=C[C@]2(OC(=O)c3ccc(Cl)cc3)CCO[C@@H]2C1`, for which the concentration for half-maximal inhibition (IC50) came to 0.7 µg/mL (≈ 2.39 µM) with P388 and 0.9 µg/mL (≈ 3.07 µM) in assay [1].

Take `CC(=O)O[C@]12C=CC(O)C[C@H]1OCC2` (stereo not given in full): the IC50 (with P388; in assay [1]) was over 100 µg/mL throughout.

For `CC(=O)O[C@]12C=CC(=O)C[C@H]1OCC2`, the values for the concentration for half-maximal inhibition (IC50) (in the assay on P388; in assay [1]) were 0.5 µg/mL (≈ 2.55 µM) and 4.1 µg/mL (≈ 20.9 µM), respectively.

On to `O=C1C=C[C@]2(OC(=O)c3ccccc3)CCO[C@@H]2C1`, for which the values for the IC50 (in the assay with P388; in assay [1]) were 0.5 µg/mL (≈ 1.94 µM) and 1.6 µg/mL (≈ 6.19 µM), respectively.

For the compound `O=C1C=C[C@]2(OC(=O)c3cccc(Cl)c3)CCO[C@@H]2C1`, the IC50 in the assay on P388 is under 0.1 µg/mL; in assay [1], 1.2 µg/mL (≈ 4.1 µM).

Consider `CCCCCC(=O)O[C@]12C=CC(O)C[C@H]1OCC2` (stereo not given in full), for which the IC50 is 38.5 µg/mL (≈ 151 µM) in the assay on P388 and 5.3 µg/mL (≈ 20.8 µM) in assay [1].

Consider `CCCCCCCC(=O)O[C@]12C=CC(=O)C[C@H]1OCC2`, for which the results for the IC50 (in the assay on P388; in assay [1]) were 0.3 µg/mL (≈ 1.07 µM) and 0.8 µg/mL (≈ 2.85 µM), respectively.

Consider `CCCC(=O)O[C@]12C=CC(=O)C[C@H]1OCC2`, for which the half-maximal inhibitory concentration (IC50) with P388 amounted to 0.6 µg/mL (≈ 2.68 µM); in assay [1], 2.7 µg/mL (≈ 12 µM).

In the case of `OC1C=C[C@]2(O)CCO[C@@H]2C1` (stereo not given in full), the values for the IC50 (in the assay on P388; in assay [1]) were 40.8 µg/mL (≈ 261 µM) and over 100 µg/mL, respectively.

For the compound `CCCCCC(=O)O[C@]12C=CC(=O)C[C@H]1OCC2`, the figures for the IC50 (in the assay with P388; in assay [1]) were 0.3 µg/mL (≈ 1.19 µM) and 1.8 µg/mL (≈ 7.13 µM), respectively.

With `CCCC(=O)O[C@]12C=CC(O)C[C@H]1OCC2` (stereo not given in full), the IC50 in the assay on P388 was over 100 µg/mL; in assay [1], 8.8 µg/mL (≈ 38.9 µM).
